Measured values published in patent US9353072B2, “Antimicrobial substituted thiazoles and methods of use” (Purdue Research Foundation, priority 2012, dated 2016).
In brackets after ≈: the same amount, converted by molar mass. Like-named read-outs stand apart in the source and are kept apart here.

Legend:
MRSA ATCC 43300 = test: MIC/MBC broth microdilution, MRSA ATCC 43300; assay type: cell-based, Staphylococcus aureus
Method: (§1) Determination of minimum inhibitory concentration (MIC). The MICs of the lead thiazole compound (compound 1a) and nine derivatives tested against all 18 MRSA strains were determined, in triplicate samples, using the broth microdilution method in accordance with the recommendations contained in the CLSI guidelines.

MRSA USA400 (NRS123) = test: MIC/MBC broth microdilution, NRS123 (USA400); assay type: cell-based; conditions: Staphylococcus aureus, Table 8, NRS123; for MIC: read-out: MIC
Method: as §1

NRS107 = test: MIC/MBC broth microdilution, NRS107; assay type: cell-based; conditions: Staphylococcus aureus; for MIC: Table 8, read-out: MIC
Method: as §1

NRS119 = test: MIC/MBC broth microdilution, NRS119; assay type: cell-based; conditions: Staphylococcus aureus, Table 8, NRS119; for MIC: read-out: MIC
Method: as §1

MRSA USA500 (NRS385) = test: MIC/MBC broth microdilution, NRS385 (USA500); assay type: cell-based; conditions: Staphylococcus aureus, Table 8, NRS385; for MIC: read-out: MIC
Method: as §1

VISA HIP07256 (NRS19) = test: MIC/MBC broth microdilution, NRS19 (VISA HIP07256); assay type: cell-based; conditions: Staphylococcus aureus, Table 8, NRS19 (VISA); for MIC: read-out: MIC
Method: as §1

MRSA NRS384 (USA300) = test: MIC/MBC broth microdilution, NRS384 (USA300); assay type: cell-based; conditions: Staphylococcus aureus
Method: as §1

NRS194 = test: MIC/MBC broth microdilution, NRS194; assay type: cell-based; conditions: Staphylococcus aureus; for MIC: Table 8, read-out: MIC
Method: as §1

VISA LIM 3 (NRS37) = test: MIC/MBC broth microdilution, NRS37 (VISA LIM 3); assay type: cell-based; conditions: Staphylococcus aureus, Table 8, NRS37 (VISA); for MIC: read-out: MIC
Method: as §1

[1] = system: MRSA ATCC 700699 (NRS1, VISA); test: MIC/MBC broth microdilution, NRS1 (ATCC 700699); assay type: cell-based; conditions: Staphylococcus aureus, Table 8, NRS1 (VISA); for MIC: triplicates, 20 hours, read-out: MIC
Method: as §1

[2] = Staphylococcus aureus, Table 6, MRSA ATCC 43300, 128 μM down to 1.0 μM, 20 hours, read-out: MIC
[3] = Staphylococcus aureus, Table 4, MRSA ATCC 43300, 64 μM down to 0.5 μM, 37° C., 19 hours, read-out: Minimum Inhibitory Concentration
[4] = Staphylococcus aureus, Table 8, ATCC 43300, read-out: MIC
[5] = Table 5, MRSA NRS384 (USA300), 128 μM down to 1.0 μM, 37° C., 19 hours, read-out: Minimum Inhibitory Concentration

SMILES | MIC (MRSA ATCC 43300; [2]) | MIC (MRSA USA400 (NRS123)) | MIC (NRS107) | MIC (MRSA ATCC 43300; [4]) | MIC (NRS119) | MIC (MRSA USA500 (NRS385)) | MIC (VISA HIP07256 (NRS19)) | MIC (MRSA NRS384 (USA300); [5]) | MIC (MRSA NRS384 (USA300); Table 8, NRS384, read-out: MIC) | MIC (NRS194) | MIC (VISA LIM 3 (NRS37)) | MIC [1] | further results
CC(=O)c1sc(-c2ccc(-c3ccc(-c4ccccc4)cc3)cc2)nc1C [Compound M23, 1-(2-([1,1′:4′,1″-Terphenyl]-4-yl)-4-methylthiazol-5-yl)ethanone] | > 128 µM | – | – | – | – | – | – | – | – | – | – | – | –
CCCCc1ccc(-c2nc(C)c(C(=O)NNC(=N)N)s2)cc1 [Compound R5, 2-(2-(4-butylphenyl)-4-methylthiazole-5-carbonyl)hydrazinecarboximidamide] | – | – | – | – | – | – | – | – | – | – | – | – | MIC (MRSA ATCC 43300; [3]): > 64 µM
CCCCc1ccc(-c2nc(C)c(/C(N)=N\O)s2)cc1 [Compound R7, (E)-2-(4-butylphenyl)-N′-hydroxy-4-methylthiazole-5-carboximidamide] | – | > 128 µM | > 128 µM | > 128 µM | > 128 µM | > 128 µM | > 128 µM | > 128 µM | > 128 µM | > 128 µM | > 128 µM | > 128 µM | –
CC(=O)c1sc(-c2ccc(-c3ccc(F)cc3)cc2)nc1C [Compound M8, 1-(2-(4′-fluoro-[1,1′-biphenyl]-4-yl)-4-methylthiazol-5-yl)ethanone] | > 128 µM | > 128 µM | > 128 µM | > 128 µM | > 128 µM | > 128 µM | > 128 µM | – | > 128 µM | > 128 µM | > 128 µM | > 128 µM | –
C/C(=N\NC(=N)N/N=C(\C)c1sc(-c2ccc(N)cc2)nc1C)c1sc(-c2ccc(N)cc2)nc1C [Compound M3] | > 128 µM | – | – | – | – | – | – | – | – | – | – | – | –
CCCCc1ccc(-c2nc(C)c(C(N)=O)s2)cc1 [Compound R6, 2-(4-butylphenyl)-4-methylthiazole-5-carboxamide] | – | – | – | – | – | – | – | – | – | – | – | – | MIC (MRSA ATCC 43300; [3]): > 64 µM
C/C(=N/NC(=N)N)c1sc(-c2ccc(-c3ccc(O)cc3)cc2)nc1C [Compound M5, (Z)-2-(1-(2-(4′-hydroxy-[1,1′-biphenyl]-4-yl)-4-methylthiazol-5-yl)ethylidene)hydrazinecarboximidamide] | > 128 µM | – | – | – | – | – | – | – | – | – | – | – | –
CC(=O)c1sc(-c2ccc(-c3ccc(C(F)(F)F)cc3)cc2)nc1C [Compound M10, 1-(4-methyl-2-(4′-(trifluoromethyl)-[1,1′-biphenyl]-4-yl)thiazol-5-yl)ethanone] | > 128 µM | > 128 µM | > 128 µM | > 128 µM | > 128 µM | > 128 µM | > 128 µM | – | > 128 µM | > 128 µM | > 128 µM | > 128 µM | –
[H]/N=C(/N)NN=C(C)c1sc(-c2cc[nH]n2)nc1C [Compound M20] | – | – | – | – | – | – | – | – | – | – | – | – | MIC (MRSA ATCC 43300; Table 6, MRSA ATCC 43300, 128 μM down to 1.0 μM, 20 hours, read-out: MIC): 8 µM (≈ 2.11 µg/mL)
CCCCc1ccc(-c2nc(C)c(C(=O)NC[C@H](O)CO)s2)cc1 [Compound R9, (S)-2-(4-butylphenyl)-N-(2,3-dihydroxypropyl)-4-methylthiazole-5-carboxamide] | – | – | – | – | – | – | – | 128 µM (≈ 44.6 µg/mL) | – | – | – | – | –
CCCCc1ccc(-c2nc(C)c(C(=O)NC[C@@H](O)CO)s2)cc1 [Compound R8, (R)-2-(4-butylphenyl)-N-(2,3-dihydroxypropyl)-4-methylthiazole-5-carboxamide] | – | – | – | – | – | – | – | 128 µM (≈ 44.6 µg/mL) | – | – | – | – | –
CCCCc1ccc(-c2nc(C)c(C(=O)NCCN(C)C)s2)cc1 [Compound R10, 2-(4-butylphenyl)-N-(2-(dimethylamino)ethyl)-4-methylthiazole-5-carboxamide] | – | – | – | – | – | – | – | 128 µM (≈ 44.2 µg/mL) | – | – | – | – | –
C/C(=N\NC(=N)N)c1sc(-c2ccc(N)cc2)nc1C [Compound M2, (E)-2-(1-(2-(4-aminophenyl)-4-methylthiazol-5-yl)ethylidene)hydrazinecarboximidamide] | > 128 µM | 128 µM (≈ 36.9 µg/mL) | 64 µM (≈ 18.5 µg/mL) | 128 µM (≈ 36.9 µg/mL) | 64 µM (≈ 18.5 µg/mL) | 128 µM (≈ 36.9 µg/mL) | 128 µM (≈ 36.9 µg/mL) | – | 128 µM (≈ 36.9 µg/mL) | 128 µM (≈ 36.9 µg/mL) | 64 µM (≈ 18.5 µg/mL) | 64 µM (≈ 18.5 µg/mL) | MBC (MRSA USA400 (NRS123); read-out: MBC): 128 µM (≈ 36.9 µg/mL); MBC (NRS107; Table 8, read-out: MBC): 64 µM (≈ 18.5 µg/mL); MBC (MRSA ATCC 43300; Staphylococcus aureus, Table 8, ATCC 43300, read-out: MBC): 128 µM (≈ 36.9 µg/mL); MBC (NRS119; read-out: MBC): 64 µM (≈ 18.5 µg/mL); MBC (MRSA USA500 (NRS385); read-out: MBC): 128 µM (≈ 36.9 µg/mL); MBC (VISA HIP07256 (NRS19); read-out: MBC): 128 µM (≈ 36.9 µg/mL); MBC (MRSA NRS384 (USA300); Table 8, NRS384, read-out: MBC): 128 µM (≈ 36.9 µg/mL); MBC (NRS194; Table 8, read-out: MBC): 128 µM (≈ 36.9 µg/mL); MBC (VISA LIM 3 (NRS37); read-out: MBC): 128 µM (≈ 36.9 µg/mL); MBC ([1]; read-out: MBC): 128 µM (≈ 36.9 µg/mL)
